Experimental findings from publication PMC9251005, “CT295 Is Chlamydia trachomatis’ Phosphoglucomutase and a Type 3 Secretion Substrate” (Frontiers in Cellular and Infection Microbiology, 2022) are described below.

Holding throughout (type): biochemical
In test [1] the target is T1, CpsG-HIS (Escherichia coli, UniProt P24175).
T1 construct: gene manB; C-terminal polyhistidine tag, E. coli BL21(DE3), Ni-NTA and Superdex 200
T1 sequence (P24175 1-456): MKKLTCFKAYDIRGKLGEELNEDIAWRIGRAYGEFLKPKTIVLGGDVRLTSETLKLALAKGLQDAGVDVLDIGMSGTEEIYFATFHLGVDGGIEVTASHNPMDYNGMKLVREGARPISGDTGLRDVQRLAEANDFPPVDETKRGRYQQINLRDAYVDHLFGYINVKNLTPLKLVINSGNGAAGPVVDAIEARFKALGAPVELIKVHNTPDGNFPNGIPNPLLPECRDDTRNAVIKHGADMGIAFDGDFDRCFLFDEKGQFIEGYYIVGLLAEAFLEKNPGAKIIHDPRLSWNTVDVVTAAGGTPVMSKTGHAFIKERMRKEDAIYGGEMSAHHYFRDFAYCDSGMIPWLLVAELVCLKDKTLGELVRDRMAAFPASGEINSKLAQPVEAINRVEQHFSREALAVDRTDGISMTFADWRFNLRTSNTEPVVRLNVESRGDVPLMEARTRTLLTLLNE
Description: HPAEC-PAD product analysis with and without cofactor. To be noted: 0.2 mg/ml Glc1,6diP, 0.66 mg/ml Glc1P, 10 mM Tris-HCl, 0.5 mM MgSO4, pH 8.0, 37°C, 20 min.

The next test has as its target T2, CCA00344-HIS (Chlamydia caviae, UniProt Q823R2).
T2 construct: gene CCA_00344; C-terminal polyhistidine tag, E. coli BL21(DE3), Ni-NTA and Superdex 200
As to the kind of experiment: HPAEC-PAD product analysis. The note with it: 0.2 mg/ml Glc1,6diP, 0.1 mg/ml enzyme, 10 mM Tris-HCl, 0.5 mM MgSO4, pH 8.0, 37°C, 20 min.

The target of the next test is T3, CT815-HIS (Chlamydia trachomatis, UniProt O84822).
T3 construct: gene glmM; pET28a, C-terminal polyhistidine tag, E. coli BL21(DE3), Ni-NTA and Superdex 200
T3 sequence (O84822 whole entry): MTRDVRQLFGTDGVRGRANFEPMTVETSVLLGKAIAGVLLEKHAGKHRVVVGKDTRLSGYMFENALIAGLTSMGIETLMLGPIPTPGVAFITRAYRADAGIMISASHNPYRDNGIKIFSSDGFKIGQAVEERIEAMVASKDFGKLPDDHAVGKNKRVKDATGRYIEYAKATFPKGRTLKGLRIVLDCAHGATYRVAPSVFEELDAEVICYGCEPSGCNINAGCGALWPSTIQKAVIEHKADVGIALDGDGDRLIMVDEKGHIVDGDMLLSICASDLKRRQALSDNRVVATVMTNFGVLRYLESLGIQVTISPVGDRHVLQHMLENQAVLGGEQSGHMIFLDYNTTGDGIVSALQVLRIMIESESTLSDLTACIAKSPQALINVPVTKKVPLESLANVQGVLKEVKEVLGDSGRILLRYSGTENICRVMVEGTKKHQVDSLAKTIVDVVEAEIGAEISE
Description: HPAEC-PAD product analysis. To be noted: 0.66 mg/ml Glc1P, 0.2 mg/ml Glc1,6diP, 0.1 mg/ml enzyme, 10 mM Tris-HCl, 0.5 mM MgSO4, pH 8.0, 37°C, 20 min.

Test [2] has as its target T1, CpsG-HIS. Description: HPAEC-PAD product analysis. The note with it: 0.66 mg/ml Glc1P, 0.2 mg/ml Glc1,6diP, 0.1 mg/ml enzyme, 10 mM Tris-HCl, 0.5 mM MgSO4, pH 8.0, 37°C, 20 min.
In a further test the target is T4, Flag-CT295 (Chlamydia trachomatis, UniProt O84297).
T4 construct: gene mrsA_1; N-terminal Flag tag, expressed in HEK293T, immobilised on anti-Flag beads
T4 sequence (O84297 entry or part of it): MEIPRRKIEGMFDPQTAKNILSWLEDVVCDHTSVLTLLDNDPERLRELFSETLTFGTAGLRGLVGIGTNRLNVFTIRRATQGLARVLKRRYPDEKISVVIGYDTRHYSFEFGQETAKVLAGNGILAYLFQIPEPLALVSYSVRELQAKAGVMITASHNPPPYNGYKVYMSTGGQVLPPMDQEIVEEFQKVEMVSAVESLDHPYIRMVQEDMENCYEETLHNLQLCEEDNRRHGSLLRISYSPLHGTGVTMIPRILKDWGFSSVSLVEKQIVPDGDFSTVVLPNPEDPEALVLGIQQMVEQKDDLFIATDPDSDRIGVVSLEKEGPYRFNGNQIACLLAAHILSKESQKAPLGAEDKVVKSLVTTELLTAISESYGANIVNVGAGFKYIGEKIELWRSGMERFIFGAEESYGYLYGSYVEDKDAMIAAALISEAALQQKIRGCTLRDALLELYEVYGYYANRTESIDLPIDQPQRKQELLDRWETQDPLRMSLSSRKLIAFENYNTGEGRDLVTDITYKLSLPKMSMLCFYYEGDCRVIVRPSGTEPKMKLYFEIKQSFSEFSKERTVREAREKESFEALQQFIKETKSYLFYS
Description: HPAEC-PAD product analysis, enzyme on anti-Flag beads. To be noted: 0.66 mg/ml Glc1P, no Glc1,6diP, 10 mM Tris-HCl, 0.5 mM MgSO4, pH 8.0, 37°C, 20 min; immobilised enzyme.

Structures are written as SMILES.

T2 sequence (Q823R2 entry or part of it): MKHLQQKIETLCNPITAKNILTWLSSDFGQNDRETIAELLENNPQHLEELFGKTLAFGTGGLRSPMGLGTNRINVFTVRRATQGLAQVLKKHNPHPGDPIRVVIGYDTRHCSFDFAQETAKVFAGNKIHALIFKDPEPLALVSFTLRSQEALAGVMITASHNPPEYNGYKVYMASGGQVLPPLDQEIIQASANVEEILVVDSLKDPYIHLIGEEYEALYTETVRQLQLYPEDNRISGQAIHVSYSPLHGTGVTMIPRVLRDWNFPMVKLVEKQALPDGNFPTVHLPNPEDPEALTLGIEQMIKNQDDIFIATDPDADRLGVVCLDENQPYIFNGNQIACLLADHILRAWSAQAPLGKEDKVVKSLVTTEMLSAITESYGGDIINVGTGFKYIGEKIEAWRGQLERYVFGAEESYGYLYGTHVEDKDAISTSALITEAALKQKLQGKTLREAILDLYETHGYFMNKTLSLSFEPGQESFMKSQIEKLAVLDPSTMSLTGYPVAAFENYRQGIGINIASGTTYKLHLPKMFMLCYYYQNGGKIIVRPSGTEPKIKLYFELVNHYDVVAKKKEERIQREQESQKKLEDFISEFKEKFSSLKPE

Regarding `O=P(O)(O)OC[C@H]1O[C@H](OP(=O)(O)O)[C@H](O)[C@@H](O)[C@@H]1O` [Glc1,6diP], the “HPAEC-PAD product analysis with and without cofactor” value at CpsG-HIS [1] was “CpsG-HIS required the presence of Glc1,6diP to convert Glc1P into Glc6P”.
`O=P(O)(O)O[C@H]1O[C@H](CO)[C@@H](O)[C@H](O)[C@H]1O` [Glc1P]: the HPAEC-PAD product analysis result is “Incubation of Glc1P in the presence of CCA00344-HIS led to its full conversion into Glc6P” on CCA00344-HIS (0.66 mg/ml Glc1P), “only low levels of Glc6P were detected in the presence of CT815-HIS” at CT815-HIS and “CpsG-HIS required the presence of Glc1,6diP to convert Glc1P into Glc6P” at CpsG-HIS [2]. Also, the “HPAEC-PAD product analysis, enzyme on anti-Flag beads” value on Flag-CT295 was “These data demonstrated the ability of CT295 to convert Glc1P into Glc6P”.
Regarding `O=P(O)(O)OC[C@H]1OC(O)[C@H](O)[C@@H](O)[C@@H]1O` (stereo partly drawn) [Glc6P], on CCA00344-HIS (0.33 mg/ml Glc6P, reverse reaction), the HPAEC-PAD product analysis result is given as “very low amounts of Glc1P were detected after incubation with CCA00344-HIS or CpsG-HIS”.
